Tested on: breast capsular contracture
Assay: Clinical cases: topical treatment of breast capsular contracture (Baker grade)
Assay type: in vivo, human
Conditions: Patient #1, Aleve and massage after first revision (bilateral Grade 3 capsular contracture)
Source text: The methods of the present invention for prevention of capsular contracture comprise topical application of the composition using the following steps: • Wash and dry the affected area (that is, the skin surrounding the implant or the skin over the capsular contracture) prior to use. • Apply the composition daily (use sparingly) with vigorous massage to affected area. If necessary, exert compression or pressure when massaging to break up existing capsule. Enhanced absorption is obtained with application of the composition following a hot shower. Occlusive dressing (hydrogel), or tight clothing (sports bras), will also enhance the result. Continued daily use will yield optimal results. […] Optimal results are best maintained with daily continued application. One particularly useful embodiment of the invention involves the use of the topical compositions for the treatment/prevention of capsular contracture in breast surgery (e.g., breast implants). There are four grades of breast capsular contracture—Baker grades I through IV. The Baker grading is as follows: • Grade I—the breast is normally soft and looks natural • Grade II—the breast is a little firm but looks normal • Grade III—the breast is firm and looks abnormal • Grade IV—the breast is hard, painful, and looks abnormal. • of developed or is at risk of developing capsular contracture a topical composition. Clinical Cases Patient #1

## COc1ccc2cc([C@H](C)C(=O)O)ccc2c1 [Aleve, naproxen sodium]
  response of capsular contracture to treatment: without result

— patent publication US8409600B2, “Methods for prevention and/or treatment of capsular contracture” (J&E Solutions, LLC, priority 2009, dated 2013)
